Experimental data as given in US7335500B2, “Production of fucosylated carbohydrates by enzymatic fucosylation synthesis of sugar nucleotides; and in situ regeneration of GDP-fucose” (The Scripps Research Institute, priority 1991, dated 2008).

Key:
α2,3SiaT = target: T1, α2,3SiaT (Rattus norvegicus, UniProt Q02734); assay: Enzymatic sialylation with α2,3sialyltransferase; format: biochemical
T1 construct: fusion protein between the pre-insulin signal peptide and the catalytic domain of the sialyltransferase; pre-insulin signal peptide (N); made in house; host or cells: Sf-9 insect cells (baculovirus rBv2,3ST), secreted into the medium
T1 sequence (Q02734 48-374 limits assumed): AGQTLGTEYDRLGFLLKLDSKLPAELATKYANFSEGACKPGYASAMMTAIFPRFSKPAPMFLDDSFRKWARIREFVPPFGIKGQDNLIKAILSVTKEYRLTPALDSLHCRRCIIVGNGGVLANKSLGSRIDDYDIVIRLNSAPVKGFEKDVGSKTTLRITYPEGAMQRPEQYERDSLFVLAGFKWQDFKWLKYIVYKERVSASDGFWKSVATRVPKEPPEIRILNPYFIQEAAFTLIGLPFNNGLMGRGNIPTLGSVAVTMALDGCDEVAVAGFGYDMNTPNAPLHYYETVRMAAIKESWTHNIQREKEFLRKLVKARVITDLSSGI
Excerpt: Sialylation A multienzyme system for sialylation starts with NeuAc, [Gal-1-^13C]-LacNAcβOallyl, PEP, and catalytic amounts of ATP and CMP, as is shown in Scheme 16, below. CMP was converted to CDP by nucleoside monophosphate kinase (EC 2.7.4.4, NMK) in the presence of ATP, which was regenerated from its byproduct ADP catalyzed by PK in the presence of PEP, then to CTP with PEP by PK. The CTP was then reacted with NeuAc with CMP-NeuAc synthetase (EC 2.7.7.43) to produce CMP-NeuAc. The byproduct, PPi was hydrolyzed to Pi by PPase. Sialylation of LacNAcβOallyl was accomplished with CMP-NeuAc and α2,3sialyltransferase (α2,3SiaT; EC 2.4.99.6). The released CMP was again converted to CDP, CTP, and finally to CMP-NeuAc. Using this system, [Gal-1-^13C]NeuAcα2,3Galβ1,4GlcNAcβOallyl (Compound 42) as well as the unlabelled trisaccharide were prepared.
A solution of Compound 1-^13C-41 (210 mg, […]), NeuAc (160 mg, […]), PEP Na3 salt (120 mg, 0.51 mmol), MgCl2.6H2O (20 mg, 0.10 mmol), MnCl2.4H2O (4.9 mg, 0.025 mmol), KCl (7.5 mg, 0.10 mmol), CMP (16 mg, 0.05 mmol), ATP (2.7 mg, […]) and mercaptoethanol (0.34 mL) in HEPES buffer (200 mM, pH 7.5; 3.5 mL) was adjusted with N NaOH to pH 7.5 and the enzymes, NMK (5 U), PK (100 U), PPase (10 U), CMP-NeuAc synthetase (0.4 U) and α2,3SiaT (0.1 U) were added to the solution. […]

[1] = target: T2, human plasma type α1,3FucT (Homo sapiens, UniProt Q11128); assay: Substrate specificity and inhibition study of α1,3FucT (GDP-14C-Fuc transfer assay); format: biochemical; details: 0.1 mM GDP-Fuc
T2 sequence (Q11128 1-374): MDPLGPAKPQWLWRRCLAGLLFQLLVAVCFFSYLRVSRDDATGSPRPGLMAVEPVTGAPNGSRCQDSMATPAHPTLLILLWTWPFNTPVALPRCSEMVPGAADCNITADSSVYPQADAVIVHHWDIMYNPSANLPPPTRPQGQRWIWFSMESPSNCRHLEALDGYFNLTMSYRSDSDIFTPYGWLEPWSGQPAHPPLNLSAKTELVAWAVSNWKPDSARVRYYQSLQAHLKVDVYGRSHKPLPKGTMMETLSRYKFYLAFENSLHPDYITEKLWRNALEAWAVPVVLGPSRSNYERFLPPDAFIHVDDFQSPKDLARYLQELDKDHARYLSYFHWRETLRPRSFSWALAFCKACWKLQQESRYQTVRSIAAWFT
Method: The assay procedure was essentially the same as described previously [Fukowska-Latallo et al, Gene & Development, 4:1288 (1990)] with some modifications. A stock mixture containing 0.25 mM GDP-^14C-Fuc (5000 cpm/mL), 6.25 mM ATP, 25 mM MnCl2 and 62.5 mM sodium cacodylate buffer, pH 6.2 was mixed freshly and kept on ice. […] The incubation was carried out at 37° C. for 30 to 240 minutes depending upon the acceptor under study. Separate assays in the absence of acceptor were used to correct for background hydrolysis of GDP-Fuc. Upon completion of incubation, 400 μL of a 25 percent (v/v) suspension of QAE-Sephadex was added. […] From the supernatant fluid, 200 μL were extracted and mixed with 10 mL of scintillation cocktail. The radioactivity was counted on a scintillation counter. […] This assay can be run in the absence of ATP.

OC[C@H]1O[C@@H](O[C@H]2[C@H](O)C=CO[C@@H]2CO)[C@H](O)[C@@H](O)[C@H]1O [Galβ1,4Glucal]
substrate for α2,3SiaT (in words) (α2,3SiaT): good substrate
IC50 ([1]; 10 mM Mn2+ and 10 mM LacNAc at pH 6.2 and 37° C.): > 50 mM
Vrel (relative maximal velocities) ([1]; 10 mM MnCl2 and 10 mM Galβ1,4GlcNAc, Galβ1,4GlcNAc = 100): 10
